The target in assay [1] is T1, HsClpP (mitochondrial caseinolytic protease P) (Homo sapiens, UniProt Q16740). The experiment in a line: biochemical. Details: gene CLPP.
Assay [2] addresses T2, HsClpP (mitochondrial caseinolytic protease P) (Homo sapiens, UniProt Q16740, W146I).
T2 construct: gene CLPP
The experiment in a line: biochemical.

Assay [3] deals with SaClpP (Staphylococcus aureus ClpP) (Staphylococcus aureus, UniProt Q2G036, I91W). The experiment in a line: PAGE-based α-casein hydrolysis activation assay; DSF. The assay is classed as biochemical.
Assay [4] has as its target T1, HsClpP (mitochondrial caseinolytic protease P). The experiment in a line: X-ray crystal structure at […] Å; DSF (ΔTm […] °C); EC50 from FITC-casein FI protease assay; CETSA. It is filed as biochemical. Details: gene CLPP; HsClpPΔ56 (N-terminus 56 amino acids truncated).
Assay [5] has as its target T3, HsClpP (mitochondrial caseinolytic protease P) (Homo sapiens, UniProt Q16740, Y118A).
T3 construct: gene CLPP
The experiment in a line: PAGE-based α-casein degradation assay; NanoDSF. The assay is classed as biochemical.

Molecules are shown by their SMILES.

T2 sequence (Q16740 57-277 W146I): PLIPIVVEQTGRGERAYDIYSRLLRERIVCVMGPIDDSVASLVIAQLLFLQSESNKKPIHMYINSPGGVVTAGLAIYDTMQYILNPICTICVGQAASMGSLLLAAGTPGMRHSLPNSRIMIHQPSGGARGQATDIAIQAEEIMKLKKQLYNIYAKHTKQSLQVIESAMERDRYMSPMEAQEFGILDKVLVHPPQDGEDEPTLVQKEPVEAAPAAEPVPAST
T1 sequence (Q16740 57-277): as the sequence (Q16740 57-277 W146I) above, with I90W counted along it
T3 sequence (Q16740 57-277 Y118A): as the sequence (Q16740 57-277 W146I) above, with Y62A, I90W counted along it

For `O=C(COc1ccc(Cl)cc1)N1CCN(Cc2cc(F)cc(F)c2)CC1` [ZK11], the EC50 came to 450 nM in assay [1], 42.4 µM in assay [2] and 8.4 µM in assay [3].
Take `O=C(NCc1ccc(Br)cc1)N1CCN(Cc2cc(F)cc(F)c2)CC1` [ZK53]: the EC50 in assay [2] turned out to be 11.8 µM; in assay [4], 220 nM; in assay [3], 5.4 µM. Also, the “PAGE-based α-casein degradation assay; NanoDSF” value in assay [5] is listed as “ZK53 is still effective to promote Y118A ClpP for α-casein degradation in PAGE assay”.

The values are drawn from paper PMC10624687 (Nature Communications, 2023).
